The assay has as its target T1, GPR40 (Homo sapiens, UniProt O14842).
T1 construct: expressed in transfected cells; host or cells: HEK293 cells stably expressing GPR40 (Hygromycin selection)
As to the kind of experiment: IP1 accumulation assay in HEK293 cells stably expressing GPR40. It counts as cell-based. An outline of the steps: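 HEK293 cells stably expressing human GPR40 were incubated with compounds (10-point, 3-fold dilution series) for 2 h at 37 °C, then IP1 was detected by HTRF (665/615 nm ratio). Effect was normalised to DMSO blank and AMG-1638 as 100%, and EC50 was derived from dose curves.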

The mark [1] stands for this setting: IP1 accumulation, HEK293 cells stably expressing GPR40, 2 hours at 37° C., % effect relative to AMG-1638, table of Biological Example 1.
The mark [2] stands for this setting: Tables A-1a to A-7b (structure-property relationship), obtained by methods of Biological Example 1.

Here are results for eleven compounds from patent publication US20250223281A1, “ANTIDIABETIC COMPOUNDS AND COMPOSITIONS” (REZUBIO PHARMACEUTICALS CO., LTD, priority 2022, published 2025).

T1 sequence (O14842 whole entry): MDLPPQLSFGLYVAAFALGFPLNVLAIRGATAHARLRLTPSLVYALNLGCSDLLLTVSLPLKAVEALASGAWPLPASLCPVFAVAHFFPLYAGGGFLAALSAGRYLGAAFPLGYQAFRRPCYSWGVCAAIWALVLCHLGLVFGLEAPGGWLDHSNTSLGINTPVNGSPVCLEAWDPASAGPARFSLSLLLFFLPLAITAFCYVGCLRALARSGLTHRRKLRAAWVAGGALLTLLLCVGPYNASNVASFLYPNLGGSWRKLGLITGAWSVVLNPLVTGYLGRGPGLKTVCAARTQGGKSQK

In the case of `COc1ccc(C(=O)N(CC(C)(C)CCCCCCn2cc(CCCCCCCCCCCCCC(=O)NCCC[N+](C)(CC(=O)[O-])CC(=O)O)nn2)c2cccc(C)n2)c(N2CCC(COc3cc([C@@H](CC(=O)O)C4CC4)ccn3)CC2)c1` (stereo partly shown) [Example 210], under setting [1], the EC50 (usually the concentration at which the effect is half-maximal) was determined as 0.00054 µM.

Under setting [1], `COc1ccc(C(=O)N(CC(C)(C)CCCCCCn2cc(CCCCC(=O)NCCC[N+](C)(CC(=O)[O-])CC(=O)O)nn2)c2cccc(C)n2)c(N2CCC(COc3cc([C@@H](CC(=O)O)C4CC4)ccn3)CC2)c1` (stereo partly shown) [Example 211] registered an EC50 of 0.0663 µM.

Regarding `COc1ccc(C(=O)N(CC(C)(C)CCCCCCn2cc(CCCCCCC(=O)NCCC[N+](C)(CC(=O)[O-])CC(=O)O)nn2)c2cccc(C)n2)c(N2CCC(COc3cc([C@@H](CC(=O)O)C4CC4)ccn3)CC2)c1` (stereo partly shown) [Example 212], under setting [1], a half-maximal effect (EC50) was put at 0.143 µM.

`COc1ccc(F)c(-c2ccc(COc3cccc([C@@H](CC(=O)O)C4CC4)c3)cc2CC(C)(C)Cn2cc(CCCCC(=O)NCCC[N+](C)(CC(=O)[O-])CC(=O)O)nn2)c1` (stereo partly shown) [Example 213]: under setting [1], the concentration for a half-maximal effect (EC50) was 0.358 µM.

`COc1ccc(C(=O)N(CC(C)(C)CCn2cc(CCCCCCCCC(=O)NCCCN(CC(=O)O)CC(=O)O)nn2)c2cccc(C)n2)c(N2CCC(COc3cc([C@@H](CC(=O)O)C4CC4)ccn3)CC2)c1` [Example 215] gave an EC50 under setting [1] of 1.36 µM and an EC50 under setting [2] of 1.36 µM.

Turning to `COc1ccc(C(=O)N(CC(C)(C)CCn2cc(CCCCCCCCCCCCCCCC(=O)NCCCN(CC(=O)O)CC(=O)O)nn2)c2cccc(C)n2)c(N2CCC(COc3cc([C@@H](CC(=O)O)C4CC4)ccn3)CC2)c1` [Example 216], the EC50 is, setting by setting: under setting [1], 0.00048 µM; under setting [2], 0.00048 µM.

As to `COc1ccc(C(=O)N(CC(C)(C)CCn2cc(CCCCCCCCC(=O)NCCC[N+](C)(CC(=O)[O-])CC(=O)O)nn2)c2cccc(C)n2)c(N2CCC(COc3cc([C@@H](CC(=O)O)C4CC4)ccn3)CC2)c1` (stereo partly shown) [Example 217], the EC50 came out at 0.683 µM under setting [1] and 0.683 µM under setting [2].

Take `COc1ccc(C(=O)N(CC(C)(C)CCn2cc(CCCCCCCCCCCCCCCC(=O)NCCC[N+](C)(CC(=O)[O-])CC(=O)O)nn2)c2cccc(C)n2)c(N2CCC(COc3cc([C@@H](CC(=O)O)C4CC4)ccn3)CC2)c1` (stereo partly shown) [Example 218]: the EC50 by setting is: under setting [1], 0.00044 µM; under setting [2], 0.00044 µM.

Under setting [1], `COc1ccc(F)c(-c2ccc(COc3cccc([C@@H](CC(=O)O)C4CC4)c3)cc2CC(C)(C)Cn2cc(CCCCC(=O)NCCN(CCC(=O)NCCN)CCC(=O)NCCN)nn2)c1` [Example 219] had an EC50 greater than 10 µM.

Compound `COc1ccc(F)c(-c2ccc(COc3cccc([C@@H](CC(=O)O)C4CC4)c3)cc2CC(C)(C)Cn2cc(CCCCCCCCC(=O)NCCN(CCC(=O)NCCN)CCC(=O)NCCN)nn2)c1` [Example 220] yielded an EC50 under setting [1] greater than 10 µM and a 50% effective concentration (EC50) under setting [2] greater than 10 µM.

With `COc1ccc(C(=O)N(CC(C)(C)CCn2cc(CCCCCCCCC=CCCCCCCCCC(=O)NCCC[N+]34CCN(CC3)CC4)nn2)c2cccc(C)n2)c(N2CCC(COc3cc([C@@H](CC(=O)O)C4CC4)ccn3)CC2)c1` [Example 221], under setting [1], the EC50 was 0.00098 µM.
